From US10173996B2, “Histone demethylase inhibitors” (CELGENE QUANTICEL RESEARCH, INC., priority 2012, dated 2019) come the findings set out here.

The test deals with KDM5A and KDM5B (tri-methyl H3K4, ZR-75-1 breast cancer cell line). The test can be described thus: In vitro cell-based assay: tri-methyl H3K4 immuno-blotting in ZR-75-1 breast cancer cells. The following applies: Homo sapiens, 72 hours with test compound, read-out: Cellular IC50. From the text: This quantitative immuno-blotting assay measures the amount tri-methylated histone H3 at amino acid Lysine number 4, a specific substrate […] of the direct enzymatic activity of the histone demethylases KDM5A and KDM5B from extracts of the ZR-75-1 breast cancer cell line.
This assay is a fluorometric immunoassay for the quantification of tri-methyl H3K4 extracted from cells treated with test compound and is used as a measure of the cellular inhibition of KDM5A/B.
ZR-75-1(PTEN null, ER+) breast cancer cells numbering 50,000 (ATCC) were seeded into each well of a 96-well tissue culture treated plate and then exposed to an 11 point dilution of test compound with final concentration ranges of test compound ranging from […] to 10 nM. […] Extracts were prepared containing all of the cellular histone material using detergent based lysis and sonication methods. These lysates were subsequently normalized for total protein content using a colorimetric bicinchonic acid assay (MicroBCA Pierce/Thermo Scientific). Normalized cell extracts were then subjected to typical immuno-blotting procedures using NuPage reagents (Life Technologies). Electrophoretically separated histones were then transferred and immobilized using polyvinylidene difluoride membrane (Immobilon-FL Millipore). The amount of tri-methylated lysine 4 of histone H3 was detected using an antibody specific to the tri-methylated state (Cell Signaling Technologies) and quantified on an infrared imager using a densitometry software package (Odyssey CLx, Image Studio, Li-Cor). This background subtracted densitometry value was reported as a ration of the GAPDH amount for that sample and then calculated as a percent of the DMSO treated sample. The software package XL-fit (IDBS) was then used to calculate a relative IC50 value for the dilution series of a given test compound according to the equation: fit=(D+((Vmax*(x^n))/((x^n)+(Km^n)))).
For the compound `O=C(O)c1ccnc(-n2nccc2OCc2ccccc2)c1` [Example 39, 2-(5-(benzyloxy)-1H-pyrazol-1-yl)isonicotinic acid], the IC50 (usually the point on the concentration scale where inhibition reaches its midpoint) was in the range of 1 to 10 µM.
With `O=C(O)c1ccnc(-n2nccc2OCc2ccc(F)cc2)c1` [Example 40, 2-{5-[(4-fluorobenzyl)oxy]-1H-pyrazol-1-yl}pyridine-4-carboxylic acid], the 50% inhibitory concentration (IC50) was in the range of 0.1 to 1 µM.
Turning to `O=C(O)c1ccnc(-n2nccc2OCc2cccc(F)c2)c1` [Example 41, 2-{5-[(3-fluorobenzyl)oxy]-1H-pyrazol-1-yl}pyridine-4-carboxylic acid], the 50% inhibitory concentration (IC50) is over 10 µM.
Then `O=C(O)c1ccnc(-n2nccc2OCc2ccc(F)c(F)c2)c1` [Example 52, 2-{5-[(3,4-difluorobenzyl)oxy]-1H-pyrazol-1-yl}pyridine-4-carboxylic acid], with 0.1 to 1 µM.
With `O=C(O)c1ccnc(-n2nccc2OCc2ccc(Cl)cc2)c1` [Example 53, 2-{5-[(4-chlorobenzyl)oxy]-1H-pyrazol-1-yl}pyridine-4-carboxylic acid], the half-maximal inhibitory concentration (IC50) lay in the range of 0.1 to 1 µM.
Regarding `Cc1ccc(COc2ccnn2-c2cc(C(=O)O)ccn2)cc1` [Example 55, 2-{5-[(4-methylbenzyl)oxy]-1H-pyrazol-1-yl}pyridine-4-carboxylic acid], the IC50 fell in the range of 0.1 to 1 µM.
The figure for `CCc1ccc(COc2ccnn2-c2cc(C(=O)O)ccn2)cc1` [Example 56, 2-{5-[(4-ethylbenzyl)oxy]-1H-pyrazol-1-yl}pyridine-4-carboxylic acid] is 0.1 to 1 µM; for `O=C(O)c1ccnc(-n2nccc2OCc2cccc(Cl)c2)c1` [Example 58, 2-{5-[(3-chlorobenzyl)oxy]-1H-pyrazol-1-yl}pyridine-4-carboxylic acid] it is 0.1 to 1 µM.
Regarding `COC(=O)c1ccnc(-n2nccc2OCc2ccc(F)c(F)c2)c1` [Example 63, methyl 2-{5-[(3,4-difluorobenzyl)oxy]-1H-pyrazol-1-yl}pyridine-4-carboxylate], the concentration for half-maximal inhibition (IC50) was 0.1 to 1 µM.
As for `COC(=O)c1ccnc(-n2nccc2OCc2ccc(Cl)cc2)c1` [Example 64, Methyl 2-{5-[(4-chlorobenzyl)oxy]-1H-pyrazol-1-yl}pyridine-4-carboxylate], the IC50 was 0.1 to 1 µM.
Consider `O=C(O)c1ccnc(-n2nccc2OCC2CCC(F)(F)CC2)c1` [Example 71, 2-{5-[(4,4-difluorocyclohexyl)methoxy]-1H-pyrazol-1-yl}pyridine-4-carboxylic acid], for which the 50% inhibitory concentration (IC50) was 1 to 10 µM.
Regarding `O=C(O)c1ccnc(-n2nccc2OCc2ccc(Cl)cc2F)c1` [Example 75, 2-{5-[(4-chloro-2-fluorobenzyl)oxy]-1H-pyrazol-1-yl}pyridine-4-carboxylic acid], the half-maximal inhibitory concentration (IC50) lay in the range of 1 to 10 µM.
As for `O=C(O)c1ccnc(-n2nccc2OCc2ccc(F)c(Cl)c2)c1` [Example 76, 2-{5-[(3-chloro-4-fluorobenzyl)oxy]-1H-pyrazol-1-yl}pyridine-4-carboxylic acid], the IC50 was 1 to 10 µM.
Turning to `O=C(O)c1ccnc(-n2nccc2OCc2ccc(F)cc2F)c1` [Example 86, 2-[5-[(2,4-difluorophenyl)methoxy]pyrazol-1-yl]pyridine-4-carboxylic acid], the IC50 is 1 to 10 µM.
As to `COc1cc(Cl)ccc1COc1ccnn1-c1cc(C(=O)O)ccn1` [Example 90, 2-[5-[(4-chloro-2-methoxyphenyl)methoxy]pyrazol-1-yl]pyridine-4-carboxylic acid], the IC50 lay in the range of 0.1 to 1 µM.
On to `Cc1ccc(COc2ccnn2-c2cc(C(=O)O)ccn2)cc1Cl` [Example 92, 2-[5-[(3-chloro-4-methylphenyl)methoxy]pyrazol-1-yl]pyridine-4-carboxylic acid], for which the half-inhibitory concentration (IC50) was in the range of 0.1 to 1 µM.
In the case of `Cc1ccc(COc2ccnn2-c2cc(C(=O)O)ccn2)cc1F` [Example 93, 2-[5-[(3-fluoro-4-methylphenyl)methoxy]pyrazol-1-yl]pyridine-4-carboxylic acid], the IC50 is 0.1 to 1 µM.
Then `Cc1ccc(COc2ccnn2-c2cc(C(=O)O)ccn2)c(F)c1F` [Example 94, 2-[5-[(2,3-difluoro-4-methylphenyl)methoxy]pyrazol-1-yl]pyridine-4-carboxylic acid], with 1 to 10 µM; and `COC(=O)c1ccnc(-n2nccc2OCc2ccc(C#N)cc2)c1` [Example 98, methyl 2-[5-[(4-cyanophenyl)methoxy]pyrazol-1-yl]pyridine-4-carboxylate], with 1 to 10 µM; and `N#Cc1ccc(COc2ccnn2-c2cc(C(=O)O)ccn2)cc1` [Example 99, 2-[5-[(4-cyanophenyl)methoxy]pyrazol-1-yl]pyridine-4-carboxylic acid], with 0.1 to 1 µM.
`O=C(O)c1ccnc(-n2nccc2OCc2ccc(F)cc2OCc2ccc(F)cc2)c1` [Example 118, 2-[5-[[4-fluoro-2-[(4-fluorophenyl)methoxy]phenyl]methoxy]pyrazol-1-yl]pyridine-4-carboxylic acid]: the 50% inhibitory concentration (IC50) fell in the range of 1 to 10 µM.
With `O=C(O)c1ccnc(-n2nccc2OCc2ccc(F)cc2CCc2ccc(F)cc2)c1` [Example 121, 2-[5-[[4-fluoro-2-[2-(4-fluorophenyl)ethyl]phenyl]methoxy]pyrazol-1-yl]pyridine-4-carboxylic acid], the half-inhibitory concentration (IC50) lay in the range of 1 to 10 µM.
On to `CCc1cc(C#N)ccc1COc1ccnn1-c1cc(C(=O)O)ccn1` [Example 126, 2-[5-[(4-cyano-2-ethylphenyl)methoxy]pyrazol-1-yl]pyridine-4-carboxylic acid], for which the IC50 is over 10 µM.
The figure for `Cc1cc(F)ccc1COc1ccnn1-c1cc(C(=O)O)ccn1` [Example 128, 2-[5-[(4-fluoro-2-methylphenyl)methoxy]pyrazol-1-yl]pyridine-4-carboxylic acid] is 0.1 to 1 µM; for `CCc1cc(F)ccc1COc1ccnn1-c1cc(C(=O)O)ccn1` [Example 129, 2-[5-[(2-ethyl-4-fluorophenyl)methoxy]pyrazol-1-yl]pyridine-4-carboxylic acid] it is 1 to 10 µM; for `Cc1ccc(COc2ccnn2-c2cc(C(=O)O)ccn2)c(Cl)c1` [Example 130, 2-[5-[(2-chloro-4-methylphenyl)methoxy]pyrazol-1-yl]pyridine-4-carboxylic acid] it is 1 to 10 µM.
The figure for `Cc1ccc(COc2ccnn2-c2cc(C(=O)O)ccn2)c(F)c1` [Example 131, 2-[5-[(2-fluoro-4-methylphenyl)methoxy]pyrazol-1-yl]pyridine-4-carboxylic acid] is 1 to 10 µM; for `Cc1ccc(COc2ccnn2-c2cc(C(=O)O)ccn2)c(C)c1` [Example 132, 2-[5-[(2,4-dimethylphenyl)methoxy]pyrazol-1-yl]pyridine-4-carboxylic acid] it is 0.1 to 1 µM.
In the case of `Cc1ccc(COc2ccnn2-c2cc(C(=O)O)ccn2)c(C#N)c1` [Example 134, 2-[5-[(2-cyano-4-methylphenyl)methoxy]pyrazol-1-yl]pyridine-4-carboxylic acid], the concentration for half-maximal inhibition (IC50) was in the range of 1 to 10 µM.
Turning to `CC(Oc1cc(Cl)ccc1COc1ccnn1-c1cc(C(=O)O)ccn1)c1ccccc1` (centres unmarked) [Example 136, 2-[5-[[4-chloro-2-(1-phenylethoxy)phenyl]methoxy]pyrazol-1-yl]pyridine-4-carboxylic acid], the IC50 lay within 1 to 10 µM.
As to `CC(Oc1cc(F)ccc1COc1ccnn1-c1cc(C(=O)O)ccn1)c1ccccc1` (centres unmarked) [Example 137, 2-[5-[[4-fluoro-2-(1-phenylethoxy)phenyl]methoxy]pyrazol-1-yl]pyridine-4-carboxylic acid], the IC50 lay within 1 to 10 µM.
With `O=C(O)c1ccnc(-n2nccc2OCc2ccc(Cl)c(OCc3ccc(F)cc3)c2)c1` [Example 138, 2-[5-[[4-chloro-3-[(4-fluorophenyl)methoxy]phenyl]methoxy]pyrazol-1-yl]pyridine-4-carboxylic acid], the IC50 was in the range of 1 to 10 µM.
As to `O=C(O)c1ccnc(-n2nccc2OCc2ccc(Cl)c(OCC3CC3)c2)c1` [Example 140, 2-[5-[[4-chloro-3-(cyclopropylmethoxy)phenyl]methoxy]pyrazol-1-yl]pyridine-4-carboxylic acid], the IC50 is 1 to 10 µM.
As to `O=C(O)c1ccnc(-n2nccc2OCc2ccc(Cl)c(OCC(F)(F)F)c2)c1` [Example 141, 2-[5-[[4-chloro-3-(2,2,2-trifluoroethoxy)phenyl]methoxy]pyrazol-1-yl]pyridine-4-carboxylic acid], the IC50 was 1 to 10 µM.
The figure for `Cc1cc(Br)ccc1COc1ccnn1-c1cc(C(=O)O)ccn1` [Example 142, 2-[5-[(4-bromo-2-methylphenyl)methoxy]pyrazol-1-yl]pyridine-4-carboxylic acid] is 1 to 10 µM; for `Cc1cc(I)ccc1COc1ccnn1-c1cc(C(=O)O)ccn1` [Example 144, 2-[5-[(4-iodo-2-methylphenyl)methoxy]pyrazol-1-yl]pyridine-4-carboxylic acid] it is 1 to 10 µM; for `COc1cc(I)ccc1COc1ccnn1-c1cc(C(=O)O)ccn1` [Example 145, 2-[5-[(4-iodo-2-methoxyphenyl)methoxy]pyrazol-1-yl]pyridine-4-carboxylic acid] it is 1 to 10 µM.
The figure for `CCc1ccc(COc2ccnn2-c2cc(C(=O)O)ccn2)c(F)c1` [Example 151, 2-[5-[(4-ethyl-2-fluorophenyl)methoxy]pyrazol-1-yl]pyridine-4-carboxylic acid] is 1 to 10 µM.
